According to ChEMBL document CHEMBL1201862, “PubChem BioAssay data set” (2004):
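Each compound was tested at five concentrations against cells in 96-well plates for 48 hours. Here, GI50 denotes the concentration required for 50% inhibition of growth.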 The source made the active and inactive calls. No stated cut-off is given here; in the data, active = GI50 up to about 1.1 µM and inactive = higher.

What was measured:
Assay in all cases: NCI tumour cell line growth inhibition, 48 h
A498 = tested on: A498
CAKI-1 = tested on: CAKI-1
EKVX = tested on: EKVX
HCC 2998 = tested on: HCC 2998
HCT-116 = tested on: HCT-116
HOP-92 = tested on: HOP-92
LOX IMVI = tested on: LOX IMVI
MCF7 = tested on: MCF7
MDA-N = tested on: MDA-N
NCI-H23 = tested on: NCI-H23
NCI-H522 = tested on: NCI-H522
NCI/ADR-RES = tested on: NCI/ADR-RES
OVCAR-4 = tested on: OVCAR-4
PC-3 = tested on: PC-3
SK-MEL-2 = tested on: SK-MEL-2
SN12C = tested on: SN12C
SNB-75 = tested on: SNB-75
TK-10 = tested on: TK-10
UACC-257 = tested on: UACC-257

| Compound | GI50 (A498) | GI50 (CAKI-1) | GI50 (EKVX) | GI50 (HCC 2998) | GI50 (HCT-116) | GI50 (HOP-92) | GI50 (LOX IMVI) | GI50 (MCF7) | GI50 (MDA-N) | GI50 (NCI-H23) | GI50 (NCI-H522) | GI50 (NCI/ADR-RES) | GI50 (OVCAR-4) | GI50 (PC-3) | GI50 (SK-MEL-2) | GI50 (SN12C) | GI50 (SNB-75) | GI50 (TK-10) | GI50 (UACC-257) |
| --- | --- | --- | --- | --- | --- | --- | --- | --- | --- | --- | --- | --- | --- | --- | --- | --- | --- | --- | --- |
| CN(CCN)[C@H](CSSC[C@@H](c1ccccc1O)N(C)CCN)c1ccccc1O | 20.2 µM (inactive) | 13 µM (inactive) | 11.5 µM (inactive) | 12 µM (inactive) | 4.12 µM (inactive) | 17.7 µM (inactive) | 4.27 µM (inactive) | 14.9 µM (inactive) | 11.9 µM (inactive) | 13.8 µM (inactive) | 16.5 µM (inactive) | 6.1 µM (inactive) | 14.1 µM (inactive) | 11.7 µM (inactive) | 14.6 µM (inactive) | 9.48 µM (inactive) | 14.7 µM (inactive) | 13.9 µM (inactive) | 14.9 µM (inactive) |
| CC1=NN(C(=O)CC(=O)Nc2cccc(Cl)c2)C(=O)C1/N=N/c1ccc(C(=O)O)cc1 (centres undefined) | > 100 µM (inactive) | > 100 µM (inactive) | > 100 µM (inactive) | > 100 µM (inactive) | > 100 µM (inactive) | 27.7 µM (inactive) | 82.4 µM (inactive) | > 100 µM (inactive) | > 100 µM (inactive) | > 100 µM (inactive) | > 100 µM (inactive) | > 100 µM (inactive) | > 100 µM (inactive) | > 100 µM (inactive) | > 100 µM (inactive) | > 100 µM (inactive) | 52.1 µM (inactive) | > 100 µM (inactive) | > 100 µM (inactive) |
| c1ccc(-c2cc3[nH]c4ccccc4[nH]c-3cc(-c3ccccc3)nn2)cc1 | 22.8 µM (inactive) | 91.8 µM (inactive) | > 100 µM (inactive) | 40 µM (inactive) | 33.6 µM (inactive) | > 100 µM (inactive) | 72.3 µM (inactive) | 51.3 µM (inactive) | > 100 µM (inactive) | > 100 µM (inactive) | 71 µM (inactive) | > 100 µM (inactive) | 56.2 µM (inactive) | 55.1 µM (inactive) | > 100 µM (inactive) | > 100 µM (inactive) | 30.4 µM (inactive) | 22.9 µM (inactive) | > 100 µM (inactive) |
| CCCCCCCCCCC1OC([C@@H](O)CC[C@H](O)C2CC[C@@H](CCCCCCCC(O)CC3=CC(C)OC3=O)O2)CCC1O (some centres undefined) | > 14.9 µM (inactive) | 11.7 µM (inactive) | 2.09 µM (inactive) | 8 µM (inactive) | 0.148 µM (active) | 8.95 µM (inactive) | 1.27 µM (inactive) | 6.79 µM (inactive) | 3.57 µM (inactive) | 0.363 µM (active) | 5.89 µM (inactive) | 1.5 µM (inactive) | 8.61 µM (inactive) | 5.94 µM (inactive) | 9.08 µM (inactive) | 9.12 µM (inactive) | 3.41 µM (inactive) | 11.7 µM (inactive) | 0.622 µM (active) |
| CC1=CC(C)C(C)N(CCNS(=O)(=O)c2ccc(C)cc2)c2ccccc21 (centres undefined) | 14.6 µM (inactive) | 20.4 µM (inactive) | 16.4 µM (inactive) | 16.4 µM (inactive) | 12.9 µM (inactive) | 18.8 µM (inactive) | 10.2 µM (inactive) | 14.2 µM (inactive) | 12.5 µM (inactive) | 13.6 µM (inactive) | 18.2 µM (inactive) | 15.2 µM (inactive) | 13.3 µM (inactive) | 12.5 µM (inactive) | 12 µM (inactive) | 12.6 µM (inactive) | 15.7 µM (inactive) | 30.5 µM (inactive) | 16.1 µM (inactive) |
| COC(=O)c1cc(C)ccc1C1CN=NC12Cc1ccc(C)cc1C2=O (centres undefined) | 29.5 µM (inactive) | 83.4 µM (inactive) | 46.5 µM (inactive) | 31.4 µM (inactive) | 27.1 µM (inactive) | 19.1 µM (inactive) | 31.2 µM (inactive) | 29.9 µM (inactive) | 31.6 µM (inactive) | 34 µM (inactive) | 32.6 µM (inactive) | 28.5 µM (inactive) | 20 µM (inactive) | 32.4 µM (inactive) | 57.9 µM (inactive) | 44.9 µM (inactive) | 30.3 µM (inactive) | 61 µM (inactive) | 34.3 µM (inactive) |
